{"source": "patent US20220362771A1", "about": "“USE OF DROPLET SINGLE CELL EPIGENOME PROFILING FOR PATIENT STRATIFICATION” (HiFiBio SAS, priority 2018, published 2022)", "key": {"MNase": {"biological_target": "MNase (Staphylococcus aureus, UniProt P00644)", "assay": "EGTA inactivation of MNase activity in droplets", "type": "biochemical", "settings": "fraction of oligonucleotide remaining measured by TapeStation, normalized to droplets without MNase", "method": "FIG. 3 depicts the concentration of EGTA necessary to fully inactivates MNase activity in droplets. The fraction of oligonucleotide remaining after incubation was measured by TapeStation and normalized to the digestion negative control (i.e droplets without MNase). 26 mM final concentration of EGTA fully inactivated MNase in droplets.\nAt the end of the encapsulation, droplets are incubated off-chip for single-cell chromatin fragmentation. Cells are lysed in droplets, making their nuclear DNA accessible for MNase enzyme. The kinetic of the digestion is particularly important to yield preferentially mono-nucleosomes, which are retained in the droplet. The ideal incubation time is defined as the time necessary to get 100% of nuclear DNA fragmented into mono-nucleosomes. The digestion conditions including lysis buffer composition, MNase concentration and incubation time are precisely calibrated for each sample by performing a time-course study. The calibration is carried out as follows: 45 pl droplets containing cells, lysis buffer and MNase are produced, collected in a collection tube and placed at 37° C. for different incubation time. At each time point, a fraction of droplets is broken and MNase immediately inactivated by addition of EGTA (see FIG. 3). DNA fragments are then purified and analyzed by electrophoresis. […]"}, "[1]": {"tested_on": "HBCx-22 luminal ER+ breast PDX", "settings": "cited from earlier work"}, "[2]": {"tested_on": "HBCx-95 triple-negative breast tumor PDX", "assay": "breast tumor PDX model of acquired resistance to Capecitabine", "type": "in vivo, mice", "method": "(a) n=6 mice with HBCx-95 derivatives were treated with Capecitabine for 6 weeks. Graphs represent relative tumor volumes (RTV, mm3) with time. Mice with recurrent tumors were treated for a second round of Capecitabine when PDX reached a volume of over 200 mm3 (mice #35, #40 & #33). […] Samples studied in manuscript are indicated with a dashed rectangle. (b) Histograms of the distribution of scChIP-seq raw and unique sequencing reads per cell in untreated HBCx-95 and Capecitabine-resistant HBCx-95-CapaR PDX. (c) Scatter plot displaying the log 2 enrichments in cumulative single-cell versus bulk H3K27me3 ChIP-seq data, calculated based on the counts per million mapped reads in 50 kb genomic bins. Pearson correlation score and p-value are computed genome-wide. (d) Distribution of the log 2 enrichments in 50 kb genomic bins for cumulative single-cell and bulk H3K27me3 ChIP-seq data. Amplitude between maximum and minimum log 2 enrichments are indicated on the top right for each ChIP-seq method (either bulk or single-cell).\nIt was profiled the H3K27me3 landscape at single-cell resolution for both sensitive and resistant xenografts, HBCx-95 and HBCx-95-CapaR (FIG. 17b), and it was also performed scRNA-seq to evaluate transcriptional heterogeneity within the same cell suspension (FIG. 18a). Cumulative single-cell chromatin profiles match bulk ChIP-seq profiles (FIG. 17c-d, r=0.89 with p<10-15)."}}, "note": "Read-outs that look alike come from different tables or passages of the source."}
{"molecule": "O=C(O)CN(CCOCCOCCN(CC(=O)O)CC(=O)O)CC(=O)O", "note": "[EGTA]", "values": [{"measurement": "final concentration of EGTA that fully inactivated MNase in droplets", "setting": "MNase", "value": 26, "unit": "mM"}]}
{"molecule": "CC/C(=C(\\c1ccccc1)c1ccc(OCCN(C)C)cc1)c1ccccc1", "note": "[Tamoxifen]", "values": [{"measurement": "tumor response to Tamoxifen", "setting": "[1]; HBCx-22-TamR tumor derivative, previously characterized", "value": "acquired resistance"}, {"measurement": "tumor response to Tamoxifen", "setting": "[1]; HBCx-22 PDX", "value": "responsive"}]}
{"molecule": "CCCCCOC(=O)Nc1nc(=O)n([C@@H]2O[C@H](C)[C@@H](O)[C@H]2O)cc1F", "note": "[Capecitabine]", "values": [{"measurement": "tumor response to Capecitabine (relative tumor volume)", "setting": "[2]; mouse #40, recurrent tumor, second round of Capecitabine, PDX extracted at 1080 mm3 as HBCx-95-CapaR", "value": "did not respond"}, {"measurement": "tumor response to Capecitabine", "setting": "[2]; xenograft derivatives from an individual patient (HBCx-95), before two cycles of treatment", "value": "initially responsive"}]}
